Key:
[1] = biological target: T1, LdGSTu1 (Leptinotarsa decemlineata, UniProt A0A1P8PEY0); test: steady-state enzyme kinetics of the purified enzyme (Km); type: biochemical
T1 construct: full-length LdGSTu1
T1 sequence (A0A1P8PEY0 1-230): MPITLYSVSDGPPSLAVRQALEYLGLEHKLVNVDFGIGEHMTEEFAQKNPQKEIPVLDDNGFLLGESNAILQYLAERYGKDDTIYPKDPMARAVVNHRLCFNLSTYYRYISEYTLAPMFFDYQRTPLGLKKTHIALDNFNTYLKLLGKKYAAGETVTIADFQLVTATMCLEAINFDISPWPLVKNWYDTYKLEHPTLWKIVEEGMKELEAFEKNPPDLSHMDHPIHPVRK

[2] = biological target: T1, LdGSTu1; test: inhibition of GSH-CDNB conjugation by the recombinant enzyme (residual activity […] at […], […] at […]); type: biochemical
[3] = biological target: T1, LdGSTu1; test: inhibition of GSH-CDNB conjugation by the recombinant enzyme (residual activity at […]); type: biochemical
[4] = substrate: CC(=O)Oc1ccc([N+](=O)[O-])cc1; test: steady-state enzyme kinetics of the purified enzyme (Km); type: biochemical, Leptinotarsa decemlineata; settings: GSH

Molecule: O=[N+]([O-])c1ccc(Cl)c([N+](=O)[O-])c1 [CDNB, 1-chloro-2,4-dinitrobenzene]
- Km [1]: 542 ± 88 µM

Molecule: C=C(CC)C(=O)c1ccc(OCC(=O)O)c(Cl)c1Cl [EA, ethacrynic acid]
- % [2]: 49.6% residual activity at 200 µM

Molecule: C/C(=N\C#N)N(C)Cc1ccc(Cl)nc1 [acetamiprid]
- % [3]: 39.1% residual activity at 5 mM

Molecule: CCOP(=S)(OCC)Oc1nc(Cl)c(Cl)cc1Cl [chlorpyrifos]
- % [3]: 70.5% residual activity at 5 mM

Molecule: CCOP(=S)(OCC)Oc1cc(C)nc(C(C)C)n1 [diazinon]
- % [3]: 75.3% residual activity at 5 mM

Molecule: O=[N+]([O-])NC1=NCCN1Cc1ccc(Cl)nc1 [imidacloprid]
- % [3]: 66.4% residual activity at 5 mM

Molecule: CN1COCN(Cc2cnc(Cl)s2)/C1=N\[N+](=O)[O-] [thiamethoxam]
- % [3]: 72.3% residual activity at 5 mM

B1: LdGSTu1 (Leptinotarsa decemlineata) (protein)
chain: MPITLYSVSDGPPSLAVRQALEYLGLEHKLVNVDFGIGEHMTEEFAQKNPQKEIPVLDDNGFLLGESNAILQYLAERYGKDDTIYPKDPMARAVVNHRLCFNLSTYYRYISEYTLAPMFFDYQRTPLGLKKTHIALDNFNTYLKLLGKKYAAGETVTIADFQLVTATMCLEAINFDISPWPLVKNWYDTYKLEHPTLWKIVEEGMKELEAFEKNPPDLSHMDHPIHPVRK
notes: full-length LdGSTu1
- Km [4]: 1.830 ± 0.572 mM
- Vmax [4]: 13.5 µM/min
- kcat [4]: 0.128 ± 0.0202 s⁻¹
- kcat/Km [4]: 70 M⁻¹ s⁻¹

From PMC8584303 (International Journal of Molecular Sciences, 2021)
